Measured values published in ChEMBL document CHEMBL3244141, “Synthesis and analgesic activity of some long-acting piperidinospiro derivatives of methadone” (1978).

Key:
Rattus norvegicus [1] = organism: Rattus norvegicus; assay: animal or person; assay type: functional; details: Sprague-Dawley, Tail, po, 24 h
Rattus norvegicus [2] = assay: Analgesic activity in po dosed Sprague-Dawley rat assessed as inhibition of warm-water tail withdrawal reflex by measuring dose required to produce withdrawal latency >4 seconds measured every hour of 24 hrs relative to methadone; assay type: functional

SMILES | ED50 (Rattus norvegicus [1]) [mg/kg] | Ratio (Rattus norvegicus [2])
CCC(=O)C(CCN1CCC2(CCCc3ccccc32)CC1)(c1ccccc1)c1ccccc1.O=C(O)C(=O)O | 0.07 | 212
CCC(OC(C)=O)C(CCN1CCC2(CCCc3ccccc32)CC1)(c1ccccc1)c1ccccc1.O=S(=O)(O)O (stereo unspecified) | 0.14 | 106
CCC(O)C(CCN1CCC2(CCCc3ccccc32)CC1)(c1ccccc1)c1ccccc1 (racemic) | 0.14 | 106
